Reference: ChEMBL document CHEMBL4311999, “3-Hydrazinoisatin-based benzenesulfonamides as novel carbonic anhydrase inhibitors endowed with anticancer activity: Synthesis, in vitro biological evaluation and in silico insights” (Eur J Med Chem, 2019)

Experiments:
NCI-H460 = assay: Growth inhibition of human NCI-H460 cells at 10 uM incubated for 48 hrs by sulforhodamine B assay relative to control; assay type: functional; settings: NCI-H460, 48 h, read-out: GI
SW-620 = assay: Growth inhibition of human SW620 cells at 10 uM incubated for 48 hrs by sulforhodamine B assay relative to control; assay type: functional; settings: SW-620, 48 h, read-out: GI
Malme-3M = assay: Growth inhibition of human MALME-3M cells at 10 uM incubated for 48 hrs by sulforhodamine B assay relative to control; assay type: functional; settings: read-out: GI
Carbonic anhydrase 9 = Carbonic anhydrase 9 (Homo sapiens, UniProt Q16790); assay: Inhibition of recombinant human carbonic anhydrase 9 preincubated for 15 mins by phenol red dye based stopped flow CO2 hydration assay
K562 = assay: Growth inhibition of human K562 cells at 10 uM incubated for 48 hrs by sulforhodamine B assay relative to control; assay type: functional; settings: K562, 48 h, read-out: GI
HCT-116 = assay: Growth inhibition of human HCT116 cells at 10 uM incubated for 48 hrs by sulforhodamine B assay relative to control; assay type: functional; settings: HCT-116, 48 h, read-out: GI
T47D = assay: Growth inhibition of human T47D cells at 10 uM incubated for 48 hrs by sulforhodamine B assay relative to control; assay type: functional; settings: read-out: GI
SK-OV-3 = assay: Growth inhibition of human SKOV3 cells at 10 uM incubated for 48 hrs by sulforhodamine B assay relative to control; assay type: functional; settings: SK-OV-3, 48 h, read-out: GI
SF-539 = assay: Growth inhibition of human SF539 cells at 10 uM incubated for 48 hrs by sulforhodamine B assay relative to control; assay type: functional; settings: SF-539, 48 h, read-out: GI
MCF7 = assay: Growth inhibition of human MCF7 cells at 10 uM incubated for 48 hrs by sulforhodamine B assay relative to control; assay type: functional; settings: MCF7, 48 h, read-out: GI
Carbonic anhydrase 2 = Carbonic anhydrase 2 (Homo sapiens, UniProt P00918); assay: Inhibition of recombinant human carbonic anhydrase 2 preincubated for 15 mins by phenol red dye based stopped flow CO2 hydration assay
Hs-578T = assay: Growth inhibition of human Hs 578T cells at 10 uM incubated for 48 hrs by sulforhodamine B assay relative to control; assay type: functional; settings: read-out: GI
UO-31 = assay: Growth inhibition of human UO31 cells at 10 uM incubated for 48 hrs by sulforhodamine B assay relative to control; assay type: functional; settings: UO-31, 48 h, read-out: GI
SN12C = assay: Growth inhibition of human SN12C cells at 10 uM incubated for 48 hrs by sulforhodamine B assay relative to control; assay type: functional; settings: read-out: GI
DU-145 = assay: Growth inhibition of human DU145 cells at 10 uM incubated for 48 hrs by sulforhodamine B assay relative to control; assay type: functional; settings: DU-145, 48 h, read-out: GI
Carbonic anhydrase 1 = Carbonic anhydrase 1 (Homo sapiens, UniProt P00915); assay: Inhibition of recombinant human carbonic anhydrase 1 preincubated for 15 mins by phenol red dye based stopped flow CO2 hydration assay
Sequence of Carbonic anhydrase 1 (P00915 whole entry): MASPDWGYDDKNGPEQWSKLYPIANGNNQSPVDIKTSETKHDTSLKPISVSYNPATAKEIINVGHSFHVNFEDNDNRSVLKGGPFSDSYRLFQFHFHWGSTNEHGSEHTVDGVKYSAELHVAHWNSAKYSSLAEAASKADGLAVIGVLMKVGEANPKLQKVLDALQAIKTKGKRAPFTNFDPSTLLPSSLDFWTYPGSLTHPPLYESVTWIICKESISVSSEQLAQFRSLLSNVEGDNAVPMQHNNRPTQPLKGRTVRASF

A549 = assay: Growth inhibition of human A549/ATCC cells at 10 uM incubated for 48 hrs by sulforhodamine B assay relative to control; assay type: functional; settings: A549, 48 h, read-out: GI
MDA-MB-231 = assay: Growth inhibition of human MDA-MB-231 cells at 10 uM incubated for 48 hrs by sulforhodamine B assay relative to control; assay type: functional; settings: MDA-MB-231, 48 h, read-out: GI
CAKI-1 = assay: Growth inhibition of human Caki1 cells at 10 uM incubated for 48 hrs by sulforhodamine B assay relative to control; assay type: functional; settings: CAKI-1, 48 h, read-out: GI
RPMI-8226 = assay: Growth inhibition of human RPMI8226 cells at 10 uM incubated for 48 hrs by sulforhodamine B assay relative to control; assay type: functional; settings: RPMI-8226, 48 h, read-out: GI
[1] = target: Cyclin-dependent kinase 2/cyclin E1 (Homo sapiens, UniProt P24941); assay: Inhibition of human recombinant CDK2/Cyclin E expressed in baculovirus infected Sf9 cells using histone H1 substrate in presence of [gamma33P]ATP
NCI-H322M = assay: Growth inhibition of human NCI-H322M cells at 10 uM incubated for 48 hrs by sulforhodamine B assay relative to control; assay type: functional; settings: read-out: GI
HCT-15 = assay: Growth inhibition of human HCT15 cells at 10 uM incubated for 48 hrs by sulforhodamine B assay relative to control; assay type: functional; settings: HCT-15, 48 h, read-out: GI
ACHN = assay: Growth inhibition of human ACHN cells at 10 uM incubated for 48 hrs by sulforhodamine B assay relative to control; assay type: functional; settings: read-out: GI
OVCAR-3 = assay: Growth inhibition of human OVCAR3 cells at 10 uM incubated for 48 hrs by sulforhodamine B assay relative to control; assay type: functional; settings: OVCAR-3, 48 h, read-out: GI
SNB-75 = assay: Growth inhibition of human SNB75 cells at 10 uM incubated for 48 hrs by sulforhodamine B assay relative to control; assay type: functional; settings: SNB-75, 48 h, read-out: GI
CDK9/cyclin T1 = CDK9/cyclin T1 (Homo sapiens, UniProt P50750); assay: Inhibition of human full length N-terminal GST-HIS6 fused CDK9 (M1 to F372 residues)/N-terminal HIS6-fused Cyclin-T1 (M1 to K726 residues) co-expressed in Sf9 cells using (YSPTSPS)2KK as substrate in presence of [gamma33P]ATP
Sequence of CDK9/cyclin T1 (O60563 whole entry, the tested form may be a part): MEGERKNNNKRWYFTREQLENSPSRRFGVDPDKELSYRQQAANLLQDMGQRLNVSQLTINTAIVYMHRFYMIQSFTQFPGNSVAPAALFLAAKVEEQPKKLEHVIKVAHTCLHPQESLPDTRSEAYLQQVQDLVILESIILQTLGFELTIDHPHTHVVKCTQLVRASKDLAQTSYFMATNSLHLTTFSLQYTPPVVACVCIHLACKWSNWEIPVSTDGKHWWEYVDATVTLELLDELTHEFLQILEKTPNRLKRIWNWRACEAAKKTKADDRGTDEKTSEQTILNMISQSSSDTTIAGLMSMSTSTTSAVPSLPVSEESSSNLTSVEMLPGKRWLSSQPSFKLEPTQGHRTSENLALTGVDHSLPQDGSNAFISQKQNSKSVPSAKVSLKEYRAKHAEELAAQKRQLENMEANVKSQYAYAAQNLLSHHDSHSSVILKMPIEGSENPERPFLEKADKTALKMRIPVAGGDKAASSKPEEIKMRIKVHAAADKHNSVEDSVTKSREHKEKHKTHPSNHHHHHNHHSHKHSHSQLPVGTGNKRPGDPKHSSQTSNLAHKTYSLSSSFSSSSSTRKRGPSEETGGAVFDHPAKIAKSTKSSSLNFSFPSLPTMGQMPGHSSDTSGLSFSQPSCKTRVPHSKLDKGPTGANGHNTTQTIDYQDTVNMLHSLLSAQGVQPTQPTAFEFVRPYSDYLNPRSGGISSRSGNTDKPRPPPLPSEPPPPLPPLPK
Sequence of CDK9/cyclin T1 (P50750 whole entry, the tested form may be a part): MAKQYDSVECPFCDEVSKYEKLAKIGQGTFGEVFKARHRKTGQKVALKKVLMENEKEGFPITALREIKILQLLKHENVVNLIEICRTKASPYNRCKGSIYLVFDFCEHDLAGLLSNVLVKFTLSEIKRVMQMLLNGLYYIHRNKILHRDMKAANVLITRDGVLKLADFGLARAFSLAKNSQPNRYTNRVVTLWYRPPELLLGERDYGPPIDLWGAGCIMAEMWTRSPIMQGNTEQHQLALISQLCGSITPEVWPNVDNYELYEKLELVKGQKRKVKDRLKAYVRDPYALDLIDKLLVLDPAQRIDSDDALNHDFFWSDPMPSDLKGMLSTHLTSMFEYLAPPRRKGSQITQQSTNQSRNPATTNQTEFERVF

M14 = assay: Growth inhibition of human M14 cells at 10 uM incubated for 48 hrs by sulforhodamine B assay relative to control; assay type: functional; settings: M14, 48 h, read-out: GI
NCI/ADR-RES = assay: Growth inhibition of human NCI/ADR-RES cells at 10 uM incubated for 48 hrs by sulforhodamine B assay relative to control; assay type: functional; settings: read-out: GI
OVCAR-8 = assay: Growth inhibition of human OVCAR8 cells at 10 uM incubated for 48 hrs by sulforhodamine B assay relative to control; assay type: functional; settings: OVCAR-8, 48 h, read-out: GI
PC-3 = assay: Growth inhibition of human PC3 cells at 10 uM incubated for 48 hrs by sulforhodamine B assay relative to control; assay type: functional; settings: PC-3, 48 h, read-out: GI
Carbonic anhydrase 12 = Carbonic anhydrase 12 (Homo sapiens, UniProt O43570); assay: Inhibition of recombinant human carbonic anhydrase 12 preincubated for 15 mins by phenol red dye based stopped flow CO2 hydration assay
Sequence of Carbonic anhydrase 12 (O43570 whole entry): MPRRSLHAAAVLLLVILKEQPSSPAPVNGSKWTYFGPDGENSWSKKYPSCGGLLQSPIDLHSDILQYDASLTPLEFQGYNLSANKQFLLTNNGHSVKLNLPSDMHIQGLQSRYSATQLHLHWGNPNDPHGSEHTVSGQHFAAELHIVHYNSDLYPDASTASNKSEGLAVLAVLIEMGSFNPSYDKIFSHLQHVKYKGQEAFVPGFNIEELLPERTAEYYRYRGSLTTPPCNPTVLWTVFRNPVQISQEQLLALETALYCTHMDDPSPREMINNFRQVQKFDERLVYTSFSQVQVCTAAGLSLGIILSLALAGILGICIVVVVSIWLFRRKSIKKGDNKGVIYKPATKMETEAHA

IGROV-1 = assay: Growth inhibition of human IGROV1 cells at 10 uM incubated for 48 hrs by sulforhodamine B assay relative to control; assay type: functional; settings: IGROV-1, 48 h, read-out: GI
OVCAR-4 = assay: Growth inhibition of human OVCAR4 cells at 10 uM incubated for 48 hrs by sulforhodamine B assay relative to control; assay type: functional; settings: OVCAR-4, 48 h, read-out: GI
NCI-H522 = assay: Growth inhibition of human NCI-H522 cells at 10 uM incubated for 48 hrs by sulforhodamine B assay relative to control; assay type: functional; settings: NCI-H522, 48 h, read-out: GI
NCI-H226 = assay: Growth inhibition of human NCI-H226 cells at 10 uM incubated for 48 hrs by sulforhodamine B assay relative to control; assay type: functional; settings: NCI-H226, 48 h, read-out: GI

| SMILES | inhibition of growth at 10 µM (NCI-H460) | inhibition of growth at 10 µM (SW-620) | inhibition of growth at 10 µM (Malme-3M) | Ki (Carbonic anhydrase 9) | inhibition of growth at 10 µM (K562) | inhibition of growth at 10 µM (HCT-116) | inhibition of growth at 10 µM (T47D) | inhibition of growth at 10 µM (SK-OV-3) | inhibition of growth at 10 µM (SF-539) | inhibition of growth at 10 µM (MCF7) | Ki (Carbonic anhydrase 2) | inhibition of growth at 10 µM (Hs-578T) | inhibition of growth at 10 µM (UO-31) | inhibition of growth at 10 µM (SN12C) | inhibition of growth at 10 µM (DU-145) | Ki (Carbonic anhydrase 1) | inhibition of growth at 10 µM (A549) | inhibition of growth at 10 µM (MDA-MB-231) | inhibition of growth at 10 µM (CAKI-1) | inhibition of growth at 10 µM (RPMI-8226) | also measured |
| --- | --- | --- | --- | --- | --- | --- | --- | --- | --- | --- | --- | --- | --- | --- | --- | --- | --- | --- | --- | --- | --- |
| CCOC(=O)CN1C(=O)/C(=N\Nc2ccc(S(N)(=O)=O)cc2)c2cc(Br)ccc21 | 56% | 37% | 21% | 65.4 nM | 35% | 86% | 22% | 18% | 84% | 16% | 630 nM | 10% | 13% | 12% | 21% | > 10000 nM | 69% | 33% | 14% | 21% | IC50 [1]: > 10000 nM; inhibition of growth at 10 µM (NCI-H322M): 23%; inhibition of growth at 10 µM (HCT-15): 15%; inhibition of growth at 10 µM (ACHN): 15%; inhibition of growth at 10 µM (OVCAR-3): 15%; inhibition of growth at 10 µM (SNB-75): 22%; IC50 (CDK9/cyclin T1): > 10000 nM; inhibition of growth at 10 µM (M14): 12%; inhibition of growth at 10 µM (NCI/ADR-RES): 10%; inhibition of growth at 10 µM (OVCAR-8): 44%; inhibition of growth at 10 µM (PC-3): 29%; Ki (Carbonic anhydrase 12): 49.5 nM; inhibition of growth at 10 µM (IGROV-1): 27%; inhibition of growth at 10 µM (OVCAR-4): 69%; inhibition of growth at 10 µM (NCI-H522): 29%; inhibition of growth at 10 µM (NCI-H226): 14% |
| NS(=O)(=O)c1ccc(N/N=C2\C(=O)N(Cc3ccccc3)c3ccc(Cl)cc32)cc1 | 35% | 20% | 30% | 19.6 nM | 18% | 31% | 21% | 26% | 39% | 25% | 52.7 nM | 55% | 19% | 13% | 13% | 4830 nM | 17% | 24% | 36% | 10% | IC50 [1]: > 10000 nM; inhibition of growth at 10 µM (NCI-H322M): 16%; inhibition of growth at 10 µM (HCT-15): 11%; inhibition of growth at 10 µM (ACHN): 35%; inhibition of growth at 10 µM (OVCAR-3): 11%; inhibition of growth at 10 µM (SNB-75): 22%; IC50 (CDK9/cyclin T1): > 10000 nM; inhibition of growth at 10 µM (M14): 12%; inhibition of growth at 10 µM (NCI/ADR-RES): 18%; inhibition of growth at 10 µM (OVCAR-8): 35%; inhibition of growth at 10 µM (PC-3): 16%; Ki (Carbonic anhydrase 12): 33.7 nM; inhibition of growth at 10 µM (IGROV-1): 16%; inhibition of growth at 10 µM (OVCAR-4): 71%; inhibition of growth at 10 µM (NCI-H522): 31%; inhibition of growth at 10 µM (NCI-H226): 66% |
